The text below walks through data of patent US8344028B2, “Gamma-amino-butyric acid derivatives as GABAB receptor ligands” (XenoPort, Inc., priority 2009, dated 2013).

For series [1], the target named is T1, recombinant human GABABR1a2 (Homo sapiens, UniProt Q9UBS5).
T1 construct: expressed in transfected cells; host or cells: HEK cells
Nature of the series: Ca2+ assay for determining GABAB receptor agonist activity. It is filed as cell-based. Conditions: cells expressing recombinant human GABABR1a2. How it is done:
The following procedure was used to determine the GABAB receptor agonist activity of a compound as reflected by activation of Ca^2+ signaling. HEK TREx cells expressing GABABR1a2 under tetracycline induction control, and Gqi chimeric protein (expressed constitutively), allowing GABABR coupling through the Ca^2+ signaling pathway were used in the experiments.
Cells were seeded in media containing tetracycline overnight at 100,000 cells/well, in black, clear-bottom, 96-well plates. The following morning, cells were washed twice with 100 μL HBSS buffer per well. Fluorescent Ca^2+ indicator dye was prepared using the materials and procedure described in the F362056 Fluo-4 NW Calcium Assay Kit (Invitrogen, Carlsbad, Calif.). Ten (10) mL of kit buffer and 100 μl of kit Probenecid were added to individual kit dye vials, and rolled back and forth several times to dissolve the dye. Cells were then loaded into the dye solution at 50 μL per well. The cells and dye were incubated for 30 min at 37° C., and then incubated for an additional 30 min at room temperature in the dark. Test compounds are dissolved in HBSS buffer at twice final concentration. Duplicate wells were used for each unique condition. Solution containing the test compound was added to the wells using a FLEXStation II (Molecular Devices, Sunnyvale, Calif.). Using the instrument in kinetic mode in which each well was read every 2 sec over a total collection time of 50 sec fluorescence was measured using an excitation wavelength 494 nm and a detection wavelength of 516 nm. A normalized fluorescence value for each well was calculated using the following procedure. The difference in fluorescence at 35 sec (usually representing maximal response) and at 15 sec (a time point prior to addition of test compounds) was calculated, divided by the fluorescence at 15 sec, and the result multiplied by 100. The final value represented the percent increase in fluorescence relative to the fluorescence at 15 sec. Data was analyzed using standard procedures.

The target in series [2] is T2, GABAB receptor (Rattus norvegicus, UniProt Q9Z0U4).
T2 construct: from tissue; host or cells: rat cerebral cortex membranes
Nature of the series: [3H]CGP54626 rat brain GABAB receptor binding assay. Conditions: [3H]CGP54626 rat brain binding assay. How it is done:
An assay using rat cerebral cortex membranes was used to determine the affinity of GABAB receptor ligands for the GABAB receptor.
An assay buffer of 50 mM Tris pH 7.4 was prepared with 100 μM of isoguvacine, to block GABAA interactions. The assay buffer with isoguvacine was used for dilution of membranes, compounds, and radiolabel.
Rat cerebral cortex membranes were diluted in assay buffer at 1 mg/mL and aliquoted into a 96-well plate at 900 μL/well. Buffer or test compound were added at 20-times final concentration in the buffer at 50 μL/well. Membranes and test compounds or buffer were incubated for 10 min. at room temperature. Radiolableled [S—(R*,R*)]-[3-[[1-(3,4-dichlorophenyl)ethyl]amino]-2-hydroxypropyl](cyclohexylmethyl) phosphinic acid (CGP54626) was then added at 50 μL/well in the buffer at 1-10 nM concentration in 50 μl. The mixture was incubated for 15 min. at room temperature. The assay mixture was filtered using Brandell filtration apparatus and GFB filters, washed twice with 3 mL of 4° C., 50 mM Tris pH 7.4, buffer without isoguvacine. The filters were then dried at room temperature and the dried filters punched out and placed in individual vials. Three (3) mL of scintillation fluid was added to each vial and the radiolabel counted on the scintillation counter. The inverse amount of radiolabel was indicative of binding of a test compound to the GABAB receptor.

In series [3] the target is T1, recombinant human GABABR1a2. Nature of the series: cAMP assay for determining GABAB receptor agonist activity. The following applies: cells expressing recombinant human GABABR1a2; read-out: cAMP EC50. It is filed as cell-based. How it is done:
The following procedure was used to determine the level of intracellular cAMP. Recombinant HEK cells expressing the GABAB R1a2 receptor were used in the experiments. cAMP levels were measured using a cAMP XS^+ HitHunter™ Chemiluminescence Assay Kit (90-0075-02, GE Healthcare Biosciences Corp.). Cells were seeded overnight at 5,000 cells per well, in black, clear bottom 96-well plates. The following morning, cells were washed twice with 100 μL PBS per well. Forskolin was weighed out and dissolved in DMSO to a final concentration 100 mM. One-hundred (100) μM forskolin solutions were prepared in PBS with and without test compound at 1-times final concentration. Thirty (30) μL of the test solutions were added to the wells and incubated for 1 h at room temperature. The cAMP concentration was determined according to the protocol described in the cAMP assay kit, maintaining the plate at room temperature and in the dark. Two hours after the final kit reagent was added, the plate bottom was covered with black tape, and the plate read using a 1450 MicroBeta Trilux microplate scintillation and luminescence counter (PerkinElmer, Waltham, Mass.). Each well was read for 6 seconds. The untransformed data was then analyzed.
(cAMP levels reflect the balance of adenylyl cyclase and phosphodiesterase activity.)

The target of series [4] is GABAB receptor (Homo sapiens, UniProt Q9UBS5). Nature of the series: GABAB receptor agonist or partial agonist activity by binding, electrophysiology, cAMP and/or Ca2+ assay methods (Examples 83-86). It is filed as cell-based. The procedure, abridged: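 Binding: rat cortex membranes in 50 mM Tris pH 7.4 with 100 μM isoguvacine were preincubated 10 min at RT with compound, then radiolabeled CGP54626 (1-10 nM) was added; filtered and scintillation-counted. cAMP: GABAB R1a2 HEK cells, 1 h RT with 100 μM forskolin, chemiluminescence.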

Series [5] is described as follows: Bioavailability following oral administration to rats. The following applies: rat, in vivo. How it is done:
Rats were obtained commercially and were pre-cannulated in the jugular vein. Animals were conscious at the time of the experiment. All animals were fasted overnight and until 4 hours post-dosing of a compound.
Rat blood samples (0.3 mL/sample) were collected from all animals prior to dosing and at different time-points up to 24 h post-dose into tubes containing EDTA. Two aliquots (100 μL each) were quenched with 300 μL methanol and stored at −20° C. prior to analysis.
To prepare analysis standards, 90 μL of rat blood was quenched with 300 μL methanol followed by 10 μL of spiking standard and/or 20 μL of internal standard. The sample tubes were vortexed for at least 2 min and then centrifuged at 3400 rpm for 20 min. The supernatant was then transferred to an injection vial or plate for analysis by LC-MS-MS.
To prepare samples for analysis, 20 μL of internal standard was added to each quenched sample tube. The sample tubes were vortexed for at least 2 min and then centrifuged at 3400 rpm for 20 min. The supernatant was then transferred to an injection vial or plate for analysis by LC-MS-MS.
LC/MS/MS analysis was performed using an API 2000 or API 4000 mass spectrometer equipped with a Shimadzu and or Agilent HPLC system are used for determination concentration of compounds in rat blood. A Varian Polaris C18, 3μ 50×4.6 mm column was used. 0.1% Formic acid in water and acetonitrile were applied as the mobile phase. Runs were 4.0 min. […] L-4-Chlorophenylalanine was used as an internal standard at m/z 200.00/154.00.
Non-compartmental analysis was performed using WinNonlin software (v.3.1 Professional Version, Pharsight Corporation, Mountain View, Calif.) on individual animal profiles. […]
The oral bioavailability (F %) of a compound was determined by comparing the area under the compound concentration vs time curve (AUC) following oral administration of a prodrug of a GABAB ligand with the AUC of the compound concentration vs time curve following intravenous administration of the GABAB ligand on a dose normalized basis.

Where a name gives a salt, the structure may show the parent alone. Where only a bound is given, the exact number is not on record here.

Sequence of GABAB receptor (Homo sapiens, UniProt Q9UBS5) (Q9UBS5 20-961): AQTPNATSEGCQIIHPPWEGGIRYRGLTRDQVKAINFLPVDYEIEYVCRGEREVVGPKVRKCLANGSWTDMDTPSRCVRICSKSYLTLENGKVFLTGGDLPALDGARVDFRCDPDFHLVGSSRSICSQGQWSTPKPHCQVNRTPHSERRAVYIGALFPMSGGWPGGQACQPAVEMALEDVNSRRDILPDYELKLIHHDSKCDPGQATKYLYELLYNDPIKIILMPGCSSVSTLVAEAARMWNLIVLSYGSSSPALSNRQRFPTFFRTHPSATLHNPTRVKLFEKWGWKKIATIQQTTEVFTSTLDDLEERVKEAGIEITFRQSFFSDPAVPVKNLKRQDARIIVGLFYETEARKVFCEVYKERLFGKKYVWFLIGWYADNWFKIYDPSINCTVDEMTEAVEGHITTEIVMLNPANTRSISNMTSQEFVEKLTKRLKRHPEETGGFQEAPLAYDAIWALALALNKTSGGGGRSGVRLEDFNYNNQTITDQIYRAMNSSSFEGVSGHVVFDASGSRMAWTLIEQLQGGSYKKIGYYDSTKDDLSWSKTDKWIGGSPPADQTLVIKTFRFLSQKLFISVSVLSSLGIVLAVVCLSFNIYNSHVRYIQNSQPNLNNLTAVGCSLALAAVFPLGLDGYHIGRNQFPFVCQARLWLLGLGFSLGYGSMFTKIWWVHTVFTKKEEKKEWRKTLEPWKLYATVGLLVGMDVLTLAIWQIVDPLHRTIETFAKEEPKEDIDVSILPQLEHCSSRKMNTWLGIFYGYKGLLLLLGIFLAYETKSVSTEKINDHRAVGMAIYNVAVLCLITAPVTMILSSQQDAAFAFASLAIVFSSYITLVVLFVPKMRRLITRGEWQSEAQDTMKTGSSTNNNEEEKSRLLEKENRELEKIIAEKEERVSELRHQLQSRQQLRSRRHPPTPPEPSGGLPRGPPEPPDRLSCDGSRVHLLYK
Sequence of GABAB receptor (Homo sapiens, UniProt Q9UBS5) (O75899 42-941 partner): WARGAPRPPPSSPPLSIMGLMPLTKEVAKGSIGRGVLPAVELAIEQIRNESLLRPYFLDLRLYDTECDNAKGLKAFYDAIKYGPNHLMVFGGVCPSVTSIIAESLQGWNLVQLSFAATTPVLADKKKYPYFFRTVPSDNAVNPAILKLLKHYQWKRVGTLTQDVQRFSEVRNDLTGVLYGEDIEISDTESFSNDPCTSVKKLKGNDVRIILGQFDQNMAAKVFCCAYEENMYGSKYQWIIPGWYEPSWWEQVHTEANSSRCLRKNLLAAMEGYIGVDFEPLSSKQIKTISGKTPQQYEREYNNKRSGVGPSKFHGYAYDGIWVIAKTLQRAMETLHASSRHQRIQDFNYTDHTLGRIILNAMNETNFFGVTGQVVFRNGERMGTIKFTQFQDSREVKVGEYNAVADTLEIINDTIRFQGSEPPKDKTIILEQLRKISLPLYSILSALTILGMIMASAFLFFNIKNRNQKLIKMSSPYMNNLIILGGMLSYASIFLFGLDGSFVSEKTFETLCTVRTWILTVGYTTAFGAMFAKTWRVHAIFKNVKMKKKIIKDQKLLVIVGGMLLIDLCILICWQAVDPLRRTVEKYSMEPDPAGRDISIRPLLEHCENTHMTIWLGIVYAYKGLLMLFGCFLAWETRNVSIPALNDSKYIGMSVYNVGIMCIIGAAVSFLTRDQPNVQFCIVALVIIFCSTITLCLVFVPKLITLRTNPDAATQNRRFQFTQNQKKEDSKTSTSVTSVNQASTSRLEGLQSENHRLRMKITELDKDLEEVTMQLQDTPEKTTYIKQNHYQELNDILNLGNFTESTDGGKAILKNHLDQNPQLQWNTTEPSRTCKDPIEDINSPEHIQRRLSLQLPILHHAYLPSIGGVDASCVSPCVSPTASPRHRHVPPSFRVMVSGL
T2 sequence (Q9Z0U4 20-960): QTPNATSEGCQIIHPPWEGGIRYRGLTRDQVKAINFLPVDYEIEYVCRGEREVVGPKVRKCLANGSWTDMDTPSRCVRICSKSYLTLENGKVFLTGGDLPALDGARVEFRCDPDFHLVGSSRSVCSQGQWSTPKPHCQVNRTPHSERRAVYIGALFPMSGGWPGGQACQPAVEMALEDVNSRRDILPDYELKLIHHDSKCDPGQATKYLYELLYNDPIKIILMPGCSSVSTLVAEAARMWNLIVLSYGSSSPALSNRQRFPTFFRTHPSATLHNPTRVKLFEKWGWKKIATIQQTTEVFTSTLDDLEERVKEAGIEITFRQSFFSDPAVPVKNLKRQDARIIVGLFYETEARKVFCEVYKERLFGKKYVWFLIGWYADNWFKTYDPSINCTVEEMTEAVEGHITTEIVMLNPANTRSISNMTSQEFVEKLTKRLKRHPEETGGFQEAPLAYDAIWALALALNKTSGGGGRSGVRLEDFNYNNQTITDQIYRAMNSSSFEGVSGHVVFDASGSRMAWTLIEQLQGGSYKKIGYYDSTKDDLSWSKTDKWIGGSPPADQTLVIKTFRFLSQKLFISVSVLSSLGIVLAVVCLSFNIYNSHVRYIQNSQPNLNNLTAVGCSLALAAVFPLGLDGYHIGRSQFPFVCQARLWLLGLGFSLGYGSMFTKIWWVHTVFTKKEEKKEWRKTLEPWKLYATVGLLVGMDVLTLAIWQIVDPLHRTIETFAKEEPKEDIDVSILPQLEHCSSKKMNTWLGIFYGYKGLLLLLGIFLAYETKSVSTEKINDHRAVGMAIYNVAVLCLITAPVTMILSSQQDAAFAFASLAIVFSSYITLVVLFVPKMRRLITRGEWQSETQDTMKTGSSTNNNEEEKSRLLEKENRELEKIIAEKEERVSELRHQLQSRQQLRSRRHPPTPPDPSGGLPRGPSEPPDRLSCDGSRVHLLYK
T2 sequence (O88871 41-940 partner): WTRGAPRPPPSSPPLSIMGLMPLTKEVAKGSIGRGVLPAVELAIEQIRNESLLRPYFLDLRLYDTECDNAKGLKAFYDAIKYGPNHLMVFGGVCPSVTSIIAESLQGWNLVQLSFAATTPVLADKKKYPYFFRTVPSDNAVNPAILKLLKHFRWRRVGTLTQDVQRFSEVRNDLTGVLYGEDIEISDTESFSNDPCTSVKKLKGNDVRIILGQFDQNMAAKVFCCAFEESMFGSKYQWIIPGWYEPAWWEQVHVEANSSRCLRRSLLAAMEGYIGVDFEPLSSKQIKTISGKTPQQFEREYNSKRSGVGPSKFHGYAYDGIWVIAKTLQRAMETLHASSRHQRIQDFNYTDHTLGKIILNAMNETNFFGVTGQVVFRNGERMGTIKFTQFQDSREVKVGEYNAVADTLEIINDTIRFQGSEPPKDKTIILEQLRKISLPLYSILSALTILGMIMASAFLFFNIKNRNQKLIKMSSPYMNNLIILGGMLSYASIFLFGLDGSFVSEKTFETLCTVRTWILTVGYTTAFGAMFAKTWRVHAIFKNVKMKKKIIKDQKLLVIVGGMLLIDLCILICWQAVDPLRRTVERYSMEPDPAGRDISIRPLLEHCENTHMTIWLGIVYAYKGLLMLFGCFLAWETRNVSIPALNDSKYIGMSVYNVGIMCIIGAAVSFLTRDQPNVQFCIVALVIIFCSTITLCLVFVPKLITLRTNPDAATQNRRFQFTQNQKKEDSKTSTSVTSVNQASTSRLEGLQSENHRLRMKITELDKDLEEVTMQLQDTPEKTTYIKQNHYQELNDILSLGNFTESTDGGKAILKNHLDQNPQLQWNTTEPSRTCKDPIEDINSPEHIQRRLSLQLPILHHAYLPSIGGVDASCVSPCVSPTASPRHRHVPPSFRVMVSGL
T1 sequence (Q9UBS5 15-961 limits assumed): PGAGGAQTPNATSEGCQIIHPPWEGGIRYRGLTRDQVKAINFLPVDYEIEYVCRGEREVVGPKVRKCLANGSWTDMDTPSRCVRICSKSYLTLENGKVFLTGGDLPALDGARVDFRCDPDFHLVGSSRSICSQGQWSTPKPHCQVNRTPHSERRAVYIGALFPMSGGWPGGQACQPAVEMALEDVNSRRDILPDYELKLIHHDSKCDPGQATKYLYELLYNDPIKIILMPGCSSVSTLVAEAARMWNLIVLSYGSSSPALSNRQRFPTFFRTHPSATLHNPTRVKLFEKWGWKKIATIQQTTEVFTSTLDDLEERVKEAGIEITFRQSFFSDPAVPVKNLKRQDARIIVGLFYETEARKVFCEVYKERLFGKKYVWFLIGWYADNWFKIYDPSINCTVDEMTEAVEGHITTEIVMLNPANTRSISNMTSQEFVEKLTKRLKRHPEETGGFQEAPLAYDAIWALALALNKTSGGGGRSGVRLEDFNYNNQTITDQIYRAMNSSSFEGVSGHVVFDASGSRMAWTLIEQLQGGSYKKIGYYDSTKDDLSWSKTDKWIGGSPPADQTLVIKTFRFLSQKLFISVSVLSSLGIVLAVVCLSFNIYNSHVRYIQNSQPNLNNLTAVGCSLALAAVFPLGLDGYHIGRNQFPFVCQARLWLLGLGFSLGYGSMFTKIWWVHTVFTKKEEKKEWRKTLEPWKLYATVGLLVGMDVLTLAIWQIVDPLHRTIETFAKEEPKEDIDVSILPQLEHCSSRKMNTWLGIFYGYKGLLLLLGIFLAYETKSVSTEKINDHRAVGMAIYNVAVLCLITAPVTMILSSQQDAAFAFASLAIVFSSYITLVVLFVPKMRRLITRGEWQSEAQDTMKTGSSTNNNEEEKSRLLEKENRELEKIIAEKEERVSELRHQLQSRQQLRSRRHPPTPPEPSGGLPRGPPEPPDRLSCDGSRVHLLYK
T1 sequence (O75899 42-941 partner): as the sequence (O75899 42-941 partner) above

Broadly, the EC50 is the midpoint of the concentration-response curve. Broadly, the IC50 is the concentration at which inhibition is half-maximal. Low readings indicate inhibition by little substance, high ones a need for much substance. As for `Cl.NC[C@H](CC(=O)O)c1ccc(Cl)c(-c2csc(C(=O)O)c2)c1` [Example 27, 4-{5-[(1R)-2-Amino-1-(carboxymethyl)ethyl]-2-chlorophenyl}thiophene-2-carboxylic acid hydrochloride], the EC50 is < 700 nM in series [1] and < 100 nM in series [3]. In addition, at GABAB receptor [2], the IC50 was < 25000 nM. Besides, the “GABAB receptor agonist or partial agonist activity” value at GABAB receptor [4] is “agonist or partial agonist activity”.

`N#Cc1ccc(-c2cc([C@H](CN)CC(=O)O)ccc2Cl)s1` [Example 29, (3R)-4-Amino-3-[4-chloro-3-(5-cyano-2-thienyl))phenyl]butanoic acid hydrochloride]: the values for the EC50 in series [1] and in series [3] were < 700 nM and < 100 nM, respectively. The half-inhibitory concentration (IC50) at GABAB receptor [2] is < 25000 nM. For the same compound, the “GABAB receptor agonist or partial agonist activity” value on GABAB receptor [4] is listed as “agonist or partial agonist activity”.

Take `Cl.NC[C@H](CC(=O)O)c1ccc(Cl)c(-c2cccnc2)c1` [Example 32, (3R)-4-Amino-3-(4-chloro-3-(3-pyridyl)phenyl)butanoic acid hydrochloride]: the concentration giving a half-maximal response (EC50) was < 700 nM in series [1] and < 100 nM in series [3]. On GABAB receptor [2], the IC50 was < 25000 nM. Further, the “GABAB receptor agonist or partial agonist activity” value at GABAB receptor [4] is “agonist or partial agonist activity”.

Take `Cl.N#Cc1cccc(-c2cc([C@H](CN)CC(=O)O)ccc2Cl)c1` [Example 33, (3R)-4-Amino-3-[4-chloro-3-(3-cyanophenyl)phenyl]butanoic acid hydrochloride]: the 50% effective concentration (EC50) was < 700 nM in series [1] and < 100 nM in series [3]. The concentration for half-maximal inhibition (IC50) on GABAB receptor [2] was < 25000 nM. Also, the “GABAB receptor agonist or partial agonist activity” value at GABAB receptor [4] is “agonist or partial agonist activity”.

With `Cl.NC[C@H](CC(=O)O)c1ccc(Cl)c(-c2cccc([N+](=O)[O-])c2)c1` [Example 37, (3R)-4-Amino-3-[4-chloro-3-(3-nitrophenyl)phenyl]butanoic acid hydrochloride], the 50% effective concentration (EC50) in series [1] was < 700 nM; in series [3] it was < 100 nM. Besides, at GABAB receptor [2], the IC50 was < 25000 nM. The “GABAB receptor agonist or partial agonist activity” value at GABAB receptor [4] is “agonist or partial agonist activity”.

On to `Cl.NC[C@H](CC(=O)O)c1ccc(Cl)c(-c2cc(C(=O)O)ccc2Cl)c1` [Example 46, 3-{5-[(1R)-2-Amino-1-(carboxymethyl)ethyl]-2-chlorophenyl}-4-chlorobenzoic acid hydrochloride], for which the EC50 in series [1] is < 700 nM; in series [3], < 100 nM. In addition, the concentration for half-maximal inhibition (IC50) at GABAB receptor [2] is < 25000 nM. Further, the “GABAB receptor agonist or partial agonist activity” value on GABAB receptor [4] is listed as “agonist or partial agonist activity”.

For `Cl.NC[C@H](CC(=O)O)c1ccc(Cl)c(-c2cc(F)cc(C(=O)O)c2)c1` [Example 50, 3-{5-[(1R)-2-Amino-1-(carboxymethyl)ethyl]-2-chlorophenyl}-5-fluorobenzoic acid hydrochloride], the 50% effective concentration (EC50) in series [1] is < 700 nM; in series [3] it was < 100 nM. Besides, the IC50 at GABAB receptor [2] was < 25000 nM. On GABAB receptor [4], the “GABAB receptor agonist or partial agonist activity” value is reported as “agonist or partial agonist activity”.

Regarding `Cl.NC[C@H](CC(=O)O)c1ccc(Cl)c(-c2cccc(C(N)=O)c2)c1` [Example 52, (3R)-4-Amino-3-[3-(3-carbamoylphenyl)-4-chlorophenyl]butanoic acid hydrochloride], the EC50 in series [1] is < 700 nM; in series [3], < 100 nM. At GABAB receptor [2], the concentration for half-maximal inhibition (IC50) is < 25000 nM. The “GABAB receptor agonist or partial agonist activity” value on GABAB receptor [4] is “agonist or partial agonist activity”.

Turning to `Cl.NC[C@H](CC(=O)O)c1ccc(Cl)c(NCc2ccncc2)c1` [Example 57, (3R)-4-Amino-3-{4-chloro-3-[(4-pyridylmethyl)amino]phenyl}butanoic acid hydrochloride], the EC50 in series [1] is < 700 nM; in series [3] it was < 100 nM. Further, the IC50 on GABAB receptor [2] was < 25000 nM. Also, on GABAB receptor [4], the “GABAB receptor agonist or partial agonist activity” value is listed as “agonist or partial agonist activity”.

`Cl.NC[C@H](CC(=O)O)c1ccc(Cl)c(NCc2cnc[nH]2)c1` [Example 60, (3R)-4-Amino-3-{4-chloro-3-[(imidazol-5-ylmethyl)amino]phenyl}butanoic acid hydrochloride]: the figures for the EC50 in series [1] and in series [3] were < 700 nM and < 100 nM, respectively. Moreover, at GABAB receptor [2], the IC50 is < 25000 nM. In addition, the “GABAB receptor agonist or partial agonist activity” value on GABAB receptor [4] is “agonist or partial agonist activity”.

On to `Cl.NC[C@H](CC(=O)O)c1ccc(Cl)c(-c2ccc(C(=O)O)s2)c1` [Example 67, 5-{5-[(1R)-2-Amino-1-(carboxymethyl)ethyl]-2-chlorophenyl}thiophene-2-carboxylic acid hydrochloride], for which the EC50 was < 700 nM in series [1] and < 100 nM in series [3]. Besides, on GABAB receptor [2], the IC50 was < 25000 nM. Moreover, at GABAB receptor [4], the “GABAB receptor agonist or partial agonist activity” value is on record as “agonist or partial agonist activity”.

Regarding `C[C@H](N)C(=O)NC[C@H](CC(=O)O)c1ccc(Cl)c(OCc2ccncc2)c1.Cl` [Example 73, (3R)-4-((2S)-2-Aminopropanoylamino)-3-[4-chloro-3-(4-pyridylmethoxy)phenyl]butanoic acid hydrochloride], the “oral bioavailability (F %)” value in series [5] is on record as “greater than 10%”.
